# In patent US7320783B2, “Methods and compositions for the enhancement of wound healing” (The Regents of the University of Michigan, priority 2002, dated 2008):
# Experiments:
# [1] = test system: C57BL6Ksdb/db obese diabetic mouse dermal wounds; assay: Dermal wound healing in obese diabetic mice, topical application; format: in vivo; details: FIG. 7
# Description: X axis, days since wounding. Y axis, wound area, relative to the initial wound area (13 to 19 mm^2). Db/db: healing-impaired, homozygous db/db, obese diabetic mice; db/+: normally healing, heterozygous db/+, non-diabetic littermates. Mean wound areas are shown.
# Peptides are further evaluated for their ability to stimulate the diabetic wound healing. The peptides are topically applied to duplicate dermal wounds in healing-impaired obese diabetic mice (Greenhalgh et al., (1990) Am. J. Pathol. 136: 1235-1246), according to published protocols (Livant et al., (2000) J. Clin. Invest. 105: 1537-1545). Wound closure times are determined in both treated and untreated mice. To confirm the importance of the cysteine switch residue, some wounds are treated with the C to S substituted peptides. To quantitate the extent of reepithelialization for several days wounding, wounds are excised, sectioned, stained, and examined microscopically. To evaluate the provisional matrix for indications of wound contraction and angiogenesis, the presence of activated fibroblasts, collagenous fibers, microvasculature, and wound macrophages is assessed in sectioned and stained wounds for several days following wounding as described (Livant et al., (2000) J. Clin. Invest. 105: 1537-1545). These assays are performed using peptides derived from MMP 1, MMP 2, MMP 7, and MMP 9.
# Each treatment group consisted of 10 mice with duplicate, dermal wounds of 12.5 to 16.5 mm^2 made in the shoulder area. Complete methods were as described (Livant et al., (2000) J. Clin. Invest. 105: 1537-1545). Treated animal were treated with 10 μg switch (PRC) sequence from MMP2 (Ac-PRCGNPDVANY-NH2) (SEQ ID NO:3). Wound areas were measured by integration of digital images.
# [2] = test system: human neonatal fibroblasts; assay: SU-ECM in vitro invasion assay, human neonatal fibroblasts; format: cell-based; details: peptide 2, 6, 20, 60 ng/ml; 5% FCS; 4 hours on SU-ECM; FIG. 3
# Description: (§1) About 1×10^5 human microvascular cells, neonatal fibroblasts, or undifferentiated human keratinocytes were suspended in medium containing 5% fetal calf serum (FCS), mixed with varying concentrations of the MMP 7 switch peptide, Ac-PRCGVPDVAEY-NH2 (Gaire et al., (1994) J. Biol. Chem. 269: 2032-2040), function-blocking anti human MMP 1 monoclonal antibody (Birkedal-Hansen et al., (1988) Biochemistry 27; 6751-6758), or total human IgG, and placed on the surfaces of SU-ECM in vitro invasion substrates. SU-ECM invasion substrates are made as described from sea urchin embryos, and contain a blastocoelic cavity enclosed by an intact basement membrane and associated extracellular matrix (Livant et al., (1995) Cancer Research 55, 5085-5093). After 4 hours of incubation (the time necessary to observe maximal invasion percentages), the invasion percentage in each assay was determined by microscopic examination of the SU-ECM invasion substrates and their associated cells at 400-fold magnification. Invasion percentages are the ratios of the numbers of cells located on the internal surfaces of SU-ECM to the total numbers of cells in contact with either the internal or the external surfaces of SU-ECM, and multiplied by 100.
# (§2) Cell culture and SU-ECM invasion assays. […]
# [3] = test system: undifferentiated human keratinocytes; assay: SU-ECM in vitro invasion assay, human keratinocytes; format: cell-based; details: peptide 2, 6, 20, 60 ng/ml; 5% FCS; 4 hours on SU-ECM; FIG. 5
# Description: as §1, §2
# [4] = test system: human microvascular cells; assay: SU-ECM in vitro invasion assay, human microvascular cells; format: cell-based; details: peptide 2, 6, 20, 60 ng/ml; 5% FCS; 4 hours on SU-ECM; FIG. 1
# Description: as §1, §2
# [5] = test system: C57BL6Ksdb/db obese diabetic mouse dermal wounds; details: topical; Livant et al. (2000) J. Clin. Invest. 105: 1537-1545; cited from earlier work
# [6] = one topical treatment with 10 μg just after wounding
substance,measurement,setting,value
Ac-PRCGNPDVANY-NH2 (listed as Homo sapiens) [PRC peptide],"decrease of the time required for closure of all db/db wounds, relative to untreated db/db mice",[1]; [6],50%
same,rapidity of closure of treated db/db wounds compared with db/+ non-diabetic mice,[1]; [6],as rapid as that of db/+ non-diabetic mice
same,enhancement of db/db wound healing (wound area relative to the initial wound area),[1]; single topical application,enhancement
"Ac-PRCGVPDVAEY-NH2 (listed as Homo sapiens) [MMP 7 switch peptide, MMP 7 prodomain cysteine switch peptide]",induction of human neonatal fibroblast invasion (percent of fibroblasts invaded),[2],induces dose-dependent invasion
same,induction of human keratinocyte invasion (percent of keratinocytes invaded),[3],induces dose-dependent invasion
same,induction of human microvascular cell invasion (percent of cells invaded),[4],induces dose-dependent invasion
Ac-PHSRN-NH2 (listed as Homo sapiens),stimulation of dermal wound healing in obese diabetic C57BL6Ksdb/db mice,[5],potent topical agent for stimulating dermal wound healing
